Data on 4 compounds can be found in patent US6472415B1, “Androgen receptor suppressors in the therapy and diagnosis of prostate cancer, alopecia and other hyper-androgenic syndromes” (priority 1998, dated 2002).

Where two headings read alike, the source gives them in different places.

For data set [1], the target named is T1, AR (Homo sapiens, UniProt P10275).
T1 sequence (P10275 1-920): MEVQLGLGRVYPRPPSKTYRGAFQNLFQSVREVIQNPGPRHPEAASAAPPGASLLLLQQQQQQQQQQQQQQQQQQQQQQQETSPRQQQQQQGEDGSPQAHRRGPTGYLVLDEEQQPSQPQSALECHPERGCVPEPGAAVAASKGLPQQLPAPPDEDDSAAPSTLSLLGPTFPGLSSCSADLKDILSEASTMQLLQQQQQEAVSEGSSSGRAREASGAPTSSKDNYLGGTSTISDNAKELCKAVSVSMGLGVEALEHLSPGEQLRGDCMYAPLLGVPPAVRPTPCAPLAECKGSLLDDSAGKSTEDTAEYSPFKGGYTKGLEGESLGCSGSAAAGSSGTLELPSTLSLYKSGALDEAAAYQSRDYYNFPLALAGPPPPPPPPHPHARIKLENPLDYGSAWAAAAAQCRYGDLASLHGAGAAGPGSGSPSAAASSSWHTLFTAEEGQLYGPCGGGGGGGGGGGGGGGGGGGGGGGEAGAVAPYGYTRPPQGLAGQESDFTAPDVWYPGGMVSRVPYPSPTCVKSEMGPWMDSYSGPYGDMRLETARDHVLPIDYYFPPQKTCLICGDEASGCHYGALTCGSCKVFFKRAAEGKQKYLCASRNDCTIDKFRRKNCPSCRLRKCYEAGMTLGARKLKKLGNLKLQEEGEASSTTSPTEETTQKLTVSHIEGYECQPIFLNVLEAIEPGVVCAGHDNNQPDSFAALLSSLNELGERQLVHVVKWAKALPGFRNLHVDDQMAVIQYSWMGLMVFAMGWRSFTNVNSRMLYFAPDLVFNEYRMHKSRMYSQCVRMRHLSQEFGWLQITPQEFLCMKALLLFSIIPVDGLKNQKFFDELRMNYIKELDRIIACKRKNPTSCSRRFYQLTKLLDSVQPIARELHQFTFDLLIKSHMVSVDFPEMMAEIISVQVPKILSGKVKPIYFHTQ
Briefly: Interaction of non-radioactive iodine compounds with AR. Conditions: compounds containing non-radioactive iodine.

The nature of data set [2]: Systemic toxicity, repeated i.p. injection in mice. It counts as in vivo. Conditions: i.p. every 2nd day. How it is done:
Systemic toxicity was orientationally evaluated by i.p. injection every 2nd day in mice. […] For BP-34, the corresponding values were 150 mg/kg bw and 300 mg/kg bw.
The maximum tolerated dose should thus be approximately 300 mg/kg. For BP-34, i.p. injections of 100-300 mg/kg produce no mortalities in mice. […] Therefore, the maximum tolerated dose of BP-34 should be approximately 250 mg/kg.

For data set [3] the following is noted: rabbits, 2× daily 0.5 mL of 10% solution in 50/50 PEG 400/EtOH, shaved skin 20 cm^2; HPLC sensitivity 5 nanograms.
The conditions of data set [4]: human, serum. How it is done:
Compounds were tested for stability in human serum at 38° C. They were dissolved in isopropanol/H2O (95:5), mixed with human serum to a concentration of 0.5 mg/mL, and incubated at 38° C. Serum aliquots were extracted with ethyl acetate and analyzed by HPLC.
(Permadi, H.; Lundgren, B.; Andersson, K.; Sundberg, C.; DePierre, J. W. Effects of perfluoro fatty acids on peroxisome proliferation and mitochondrial size in mouse liver: dose and time factors and effect of chain length. Xenobiotica, 91993) Vol. 23, No. 7, pp.761-70).

For data set [5] the following is noted: i.m., 75 mg/kg bw.
Data set [6] relates to prostate and seminal vesicles. The experiment in a line: Weight of prostate and seminal vesicles (secondary sex organs) in rats. Type of data set: in vivo.
Description: (The dose of 0.1 mg/kg approximates the expected topical daily dose for humans).
The test system of data set [7] is androgenic alopecia. Particulars: three male volunteers, 1% solution in ethanol.
For data set [8] the following is noted: Takagi et al. 1991; cited from earlier work.
The conditions of data set [9]: Permadi et al. 1993; cited from earlier work.
Where [10] appears, read: Rabbit, skin 20 cm^2, 100 mg/d, 10 d.

Consider `CC1(C)C(=O)N(c2ccc(C#N)c(C(F)(F)F)c2)C(=S)N1C/C=C/I` [BP-305, 4-[3′-trans-(2″-propenyl-3″-iodo)-4′,4′-dimethyl-5′-oxo-2′-thioxo-1-imidazolidinyl]-2-trifluoromethylbenzonitrile], for which the “Interaction with AR as compared to controls” value in data set [1] is given as “shown to interact with AR”.
On to `CC(O)(CNC(=O)C(F)(F)C(F)(F)C(F)(F)F)C(=O)Nc1ccc([N+](=O)[O-])c(C(F)(F)F)c1` (stereo not shown) [BP-521, 4-nitro-3-trifluoromethyl-N-(2′-hydroxy-2′-methyl-3′-N-(heptafluorobutyramido)propionyl)aniline], for which the μg/ml blood is, setting by setting: (Rabbit ~3 kg, i.p., 150 mg/kg bw, 0.5 hrs) 1.9 µg/mL; (Rabbit ~3 kg, oral, 100 mg/kg bw, 0.5 hrs) 1.5 µg/mL; (Rabbit ~3 kg, skin 20 cm^2, 100 mg/d, 10 d, 0.5 hrs) 0 µg/mL; (Rabbit, i.p., 150 mg/kg bw, 1.0 hrs) 3.2 µg/mL; (Rabbit, i.p., 150 mg/kg bw, 1.5 hrs) 1.9 µg/mL; (Rabbit, i.p., 150 mg/kg bw, 2.5 hrs) 1.5 µg/mL. For the same compound, the μg/ml blood reads like this: (Rabbit, i.p., 150 mg/kg bw, 7.0 hrs) 3.0 µg/mL; (Rabbit, i.p., 150 mg/kg bw, 24 hrs) 2.2 µg/mL; (Rabbit, oral, 100 mg/kg bw, 1.0 hrs) 1.7 µg/mL; (Rabbit, oral, 100 mg/kg bw, 1.5 hrs) 2.6 µg/mL; (Rabbit, oral, 100 mg/kg bw, 2.5 hrs) 1.5 µg/mL; (Rabbit, oral, 100 mg/kg bw, 7.0 hrs) 1.0 µg/mL. The compound further yielded a μg/ml blood (Rabbit, oral, 100 mg/kg bw, 24 hrs) of 1.0 µg/mL; a μg/ml blood (Rabbit, skin 20 cm^2, 100 mg/d, 10 d, 1.0 hrs) of 0 µg/mL; a μg/ml blood (Rabbit, skin 20 cm^2, 100 mg/d, 10 d, 1.5 hrs) of 0 µg/mL; a μg/ml blood (Rabbit, skin 20 cm^2, 100 mg/d, 10 d, 2.5 hrs) of 0 µg/mL; a μg/ml blood (Rabbit, skin 20 cm^2, 100 mg/d, 10 d, 7.0 hrs) of 0 µg/mL; a μg/ml blood (Rabbit, skin 20 cm^2, 100 mg/d, 10 d, 24 hrs) of 0 µg/mL. The μg/ml blood is 0.7 µg/mL in data set [5] (Rat ~140 g, 0.5 hrs); 4.7 µg/mL in data set [5] (Rat, 1.0 hrs); 2.2 µg/mL in [5] (Rat, 1.5 hrs); 1.0 µg/mL in data set [5] (Rat, 24 hrs). The compound further came in with a Cumulative % dose (Rabbit, i.p., 150 mg/kg bw) of 2.8%; a Cumulative % dose (Rabbit, oral, 100 mg/kg bw) of 1.50%; a Cumulative % dose under setting [10] of 0%; a Cumulative % dose in data set [5] (Rat) of 2.9%. Also, the “Cumulative mg/total blood volume” value (Rabbit, i.p., 150 mg/kg bw) was determined as 11.6 µg; the “Cumulative mg/total blood volume” value (Rabbit, oral, 100 mg/kg bw) turned out to be 3.0 µg; the “Cumulative mg/total blood volume” value under setting [10] came out at 0 µg; the “Cumulative mg/total blood volume” value in [5] (Rat) turned out to be 2.1 µg. Moreover, the “Bioavailability” value (from the subcutaneous, muscle and intraperitoneal spaces) is “low”. Also, the “Peak serum levels as % of the injected dose” value (oral test) is 0.0052%. Further, the “Dose with morbidity but no mortality” value in data set [2] came to 350 mg/kg bw. In addition, the “Dose given without mortality or morbidity” value in data set [2] (5 times) worked out at 200 mg/kg bw. In addition, the “Topical absorption” value in data set [3] is listed as “No absorption was found”. For the same compound, the “Percent of the intact compound remaining in human serum” value in [4] (6 h) came to 97.5%; in data set [4] (24 h), 90.0%; in data set [4] (48 h) it was 84.0%; in [4] (144 h), 60.0%. For the same compound, the “Reduction of secondary sex organs' weight” value in data set [6] (castrated rats supplemented with testosterone propionate, 0.1 mg/kg) was “did not reduce”. In addition, in [6] (intact rats, 10 times subcutaneously 100 mg/kg), the “Reduction of average weight of prostate and seminal vesicles” value is “about 46%”. Moreover, the “Effect on incipient androgenic alopecia of the forehead line” value in [7] (0.5 mL twice daily on scalp) is reported as “effectively arrested incipient androgenic alopecia”. Also, in data set [7] (0.5 mL twice daily, after 8 weeks), the “Hair growth” value is “induced copious growth of vellum hair”.
For the compound `O=C(O)C(F)(F)C(F)(F)C(F)(F)F` [perfluorobutyric acid], the “Toxicity” value in data set [8] is recorded as “low toxicity”.
Turning to `O=C(O)C(F)(F)F` [trifluoroacetic acid], in data set [9], the “Toxicity when fed to mice” value is on record as “no toxicity”.
